In patent US20170143771A1, “COMPOSITION CONTAINING PSEUDOMONAS AERUGINOSA CULTURE SOLUTION EXTRACT HAVING ANTIBIOTIC AND ANTISEPTIC ACTIVITIES, AND USE THEREOF” (JOINT CENTER FOR BIOSCIENCES, priority 2014, published 2017):

Experiments:
[1] = DPPH scavenging activity test (antioxidative effect); format: biochemical; conditions: concentration of 0.5% or more; 30 minutes, absorbance 517 nm; compared with ascorbic acid (AA)
Method: The color change of the DPPH radical is distinctive as it reacts with a reagent having excellent antioxidative ability. R1, ascorbic acid (AA), and methyl paraben (MTP) each were dissolved at different concentrations in methanol. The thus obtained samples (100 μl) each were dissolved at a concentration of 0.006% in methanol, and mixed with 100 μl of the DPPH radical solution to prepare a total volume of 200 μl, followed by reaction in a light-blocked space for 30 minutes. After completion of the reaction, the absorbance of each mixture was measured at 517 nm to determine antioxidative ability of each sample.

Bacillus cereus = assay: Preservative power test (challenge test), lotion dosage form; format: cell-based; conditions: 0.5%
Method: (§1) In order to investigate the possibility of R1 as a preservative compared with methyl paraben, the preservative power test was conducted by measuring the sterilizing power of a toner dosage form and a lotion dosage form of R1 against gram positive pathogens (Staphylococcus aureus and Bacillus cereus) and gram negative pathogens (Pseudomonas aeruginosa and Escherichia coli). The preservative power test was conducted on the basis of the U.S. Cosmetics, Toiletry, and Fragrance Association (CTFA), and the basis is that a particular material has a possibility as a preservative if the particular material in dosage forms of a toner or lotion kills 99.9% of inoculated bacteria within 7 days.
(§2) R1 and methyl paraben, which were dissolved in methanol, each were added to the toner dosage form, so that the final concentration of each of R1 and the methyl paraben had 0% and 0.5%, and the S. aureus, B. cereus, P. aeruginosa, and C. albicans cultures each were inoculated in each container. The number of inoculated bacterial cells was 106-107 colony forming unit (CFU)/ml. While the bacteria-inoculated lotions were kept at room temperature, each lotion was diluted immediately, one day, three days, five days, and seven days after the inoculation of bacteria, and 200 μl of the lotions inoculated with S. aureus, B. cereus, and P. aeruginosa each were as plated on LB agar plate, and 200 μl of the lotion inoculated with C. albicans was plated on YPD agar plate. The death or not of bacteria was checked by calculating the number of cells and then comparing the calculated number with the number of initially inoculated bacteria. As control, only methanol was added to the lotion dosage form, and the bacteria culture was inoculated, followed by repeated tests.

Candida albicans = assay: as above; format: cell-based; conditions: 0.5%
Method: as §1, §2

Staphylococcus aureus = assay: as above; format: cell-based; conditions: 0.5%
Method: as §1, §2

Pseudomonas aeruginosa = assay: as above; format: cell-based; conditions: 0.5%
Method: as §1, §2

S. aureus = assay: Antibiotic activity of R1 fractions and rhamnolipids (clear zone on agar plate); format: cell-based, Staphylococcus aureus; conditions: concluded from fraction activity and LC/MS peaks 1 and 2
Method: 1 mg of a mixture state of R1 extracted from a microorganism (P. aeruginosa) culture was dissolved in methanol, and then injected in the sep-Pak vac 1cc tc18 cartridge column. After that, the column was washed with solvent A, and solvent B as a development solvent was injected thereinto. Solvent B with different concentrations was injected into the column, and the fractions passing through the column were collected, and named fraction 1, fraction 2, fraction 3, fraction 4, fraction 5, and fraction 6. The different concentrations of solvent B injected to the column were 50%, 55%, 60%, 65%, 70%, and 75%.
Each of the obtained fractions was dried, and then dissolved at a concentration of 10 mg/ml in methanol. 20 μl of each of the fractions dissolved in methanol was dropped on an agar plate plated with the S. aureus culture, and cultured at 37° C. for 18 hours. After 18 hours, the clear zone generated on the agar plate was observed.

SMILES: COC(=O)c1ccc(O)cc1 [MTP, methyl paraben]
- antioxidative effect (DPPH scavenging activity) [1]: significantly low antioxidative effect
- survival rate of inoculated bacteria (Bacillus cereus; Day 0): 100%
- survival rate of inoculated bacteria (Bacillus cereus; Day 1): 0.12%
- survival rate of inoculated bacteria (Bacillus cereus; Day 3): 0.06%
- survival rate of inoculated bacteria (Bacillus cereus; Day 5): 0.02%
- survival rate of inoculated bacteria (Bacillus cereus; Day 7): 0.01%
- survival rate of inoculated bacteria (Candida albicans; Day 0): 100%
- survival rate of inoculated bacteria (Candida albicans; Day 1): 0%
- survival rate of inoculated bacteria (Candida albicans; Day 3): 0%
- survival rate of inoculated bacteria (Candida albicans; Day 5): 0%
- survival rate of inoculated bacteria (Candida albicans; Day 7): 0%
- survival rate of inoculated bacteria (Staphylococcus aureus; Day 0): 100%
- survival rate of inoculated bacteria (Staphylococcus aureus; Day 1): 0%
- survival rate of inoculated bacteria (Staphylococcus aureus; Day 3): 0%
- survival rate of inoculated bacteria (Staphylococcus aureus; Day 5): 0%
- survival rate of inoculated bacteria (Staphylococcus aureus; Day 7): 0%
- survival rate of inoculated bacteria (Pseudomonas aeruginosa; Day 0): 100%
- survival rate of inoculated bacteria (Pseudomonas aeruginosa; Day 1): 0%
- survival rate of inoculated bacteria (Pseudomonas aeruginosa; Day 3): 0%
- survival rate of inoculated bacteria (Pseudomonas aeruginosa; Day 5): 0%
- survival rate of inoculated bacteria (Pseudomonas aeruginosa; Day 7): 0%

SMILES: CCCCCCCC(CC(=O)O)OC(=O)CC(CCCCCCC)OC1OC(C)C(O)C(O)C1OC1OC(C)C(O)C(O)C1O (stereo not drawn) [Rha-Rha-C10-C10]
- active ingredient having antibacterial activity (S. aureus): active ingredients having antibacterial activity

SMILES: CCCCCCCC(CC(=O)O)OC(=O)CC(CCCCCCC)O[C@@H]1O[C@@H](C)[C@H](O)[C@@H](O)[C@H]1O (some centres unmarked) [Rha-C10-C10]
- active ingredient having antibacterial activity (S. aureus): active ingredients having antibacterial activity
